Assay results reported in article PMC4334692 (Bioorganic & medicinal chemistry letters, 2015).

What was measured:
STEP = target: T1, STEP (Homo sapiens, UniProt P54829); experiment: Second order rate of inactivation of STEP; type: biochemical; details: no GSH added; quadruplicate, mean ± S.D.
T1 sequence (P54829 1-565): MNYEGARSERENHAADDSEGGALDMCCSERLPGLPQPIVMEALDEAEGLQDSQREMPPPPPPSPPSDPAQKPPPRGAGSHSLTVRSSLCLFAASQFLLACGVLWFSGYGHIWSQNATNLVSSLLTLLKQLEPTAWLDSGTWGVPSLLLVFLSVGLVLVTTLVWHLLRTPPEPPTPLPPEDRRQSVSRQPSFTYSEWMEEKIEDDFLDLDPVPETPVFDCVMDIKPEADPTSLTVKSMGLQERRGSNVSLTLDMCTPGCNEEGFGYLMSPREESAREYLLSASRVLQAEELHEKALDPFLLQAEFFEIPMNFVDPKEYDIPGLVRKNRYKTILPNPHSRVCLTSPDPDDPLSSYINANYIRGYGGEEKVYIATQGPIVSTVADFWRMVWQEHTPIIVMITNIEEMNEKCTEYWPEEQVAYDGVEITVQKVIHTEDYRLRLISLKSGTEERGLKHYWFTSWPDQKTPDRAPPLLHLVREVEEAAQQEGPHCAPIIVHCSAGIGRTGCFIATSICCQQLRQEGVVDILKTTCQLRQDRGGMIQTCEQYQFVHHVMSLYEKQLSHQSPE

rat cortical neurons = details: ref [4]; cited from earlier work
[1] = test system: Alzheimer's disease (AD) mice; details: novel object recognition and Morris water maze tests, ref [4]; cited from earlier work

| Kinact/Ki (STEP) | Structure (SMILES) | phosphorylation levels of STEP substrates GluN2B, Pyk2 and ERK1/2 (rat cortical neurons) | cognitive deficits [1] |
| --- | --- | --- | --- |
| 161,000 ± 26,000 M^-1S^-1 | O=C(Nc1cc(C(F)(F)F)cc2c1SSSSS2)C(F)(F)F [Compound 23] | – | – |
| – | Cl.Nc1cc(C(F)(F)F)cc2c1SSSSS2 [TC-2153, 8-(trifluoromethyl)-1,2,3,4,5-benzopentathiepin-6-amine hydrochloride] | enhanced the phosphorylation levels | reduced cognitive deficits |
